In US5053416A, “Derivatives of 1,2,5,6-tetrahydropyridine substituted by a thiazolyl or oxazolyl radical, their use as medicaments and compositions containing them” (Roussel Uclaf, priority 1988, dated 1991):
Read-outs that look alike come from different tables or passages of the source.

What was measured:
[1] = system: isolated ileum of a guinea-pig; assay: Test on the isolated ileum of a guinea-pig (contraction, agonist activity); conditions: Cavia porcellus, read-out: pD2 (converted)
Procedure: Fragments of the ileum of guinea-pigs killed by decapitation are removed. […] The contractions caused by the products are recorded using a sensor connected to a polygraph. The products under test are added, at concentrations comprised between 1.10^-3 M and 1.10^-8 M/l.
The products presenting a contracting effect are tested vis-a-vis atropine and hexamethonium to establish if the activity is of "muscarinic" or "nicotinic" type.
The possible antagonist activity of the products is tested vis-a-vis acetylcholine.
The agonist activity is expressed in pD2 (negative logarithm of the dose which produces 50% of the maximum effect).

in vivo = conditions: mouse, male mice, oral route, mortality during 7 days following treatment
Procedure: The test is carried out on male mice (CD1 Charles Rivers) of 22 to 24 g, without food for 16 hours. […] The mortality is noted during the 7 days following treatment.

[2] = system: male mice (CD1 Charles Rivers); assay: Hypothermic activity (rectal body temperature); type: in vivo; conditions: Mus musculus; for ED (1 C fall in body temperature): sc, read-out: Effective dose (-1° C.) SC.R.; for ED (-1 C): read-out: Effective dose (-1° C.) O.R.
Procedure: The test is carried out on male mice (CD1 Charles Rivers) weighing 25 to 30 g, without food for 6 hours.
The body temperature is noted by means of a thermocouple placed about 1.5 cm inside the rectum and connected to an electric temperature recorder.
The products are administered by oral or sub-cutaneous route and the temperatures are noted at 0 and 30 minutes, one hour, 2 hours and 2 hours 30 minutes after treatment.
The degree of hypothermia is evaluated as the difference between the treated animals and the controls and the dose necessary to reduce the body temperature by 1° C. is determined.

[3] = system: male mice (CD1 Charles Rivers); assay: Diarrhoeic activity, oral; conditions: for ED50: Mus musculus, po, read-out: DE50
Procedure: The test is carried out on male mice (CD1 Charles Rivers) weighing 25 to 30 g, without food for 6 hours. The product at 5% in methocel is administered by oral route, by means of an oesophagus probe.
Control animals receive only the excipient.
The sheets of absorbent paper are changed after each observation.
1: slightly soft faeces with or without moist circle,
2: slightly soft faeces with presence of a well-defined moist circle,
3: soft faeces with presence of a large moist circle,
4: faeces without consistency with presence of a very large moist circle.

[4] = negative logarithm of the dose which produces 50% of the maximum effect, Tyrode's solution at 37° C.
[5] = sub-cutaneous route, dose necessary to reduce the body temperature by 1° C.
[6] = oral route, dose necessary to reduce the body temperature by 1° C.

Structure (SMILES)	EC50 [1, 4] [nM]	LD50 at 168 h (in vivo) [mg/kg]	ED (1 C fall in body temperature) [2, 5] [mg/kg]	ED (-1 C) [2, 6] [mg/kg]	ED50 [3] [mg/kg]	EC50 [1] [nM]	ED (-1 C) ([2]; po) [mg/kg]	ED (1 C fall in body temperature) [2] [mg/kg]	DE50 ([3]; male mice, oral route, dose which causes diarrhoea in 50% of the animals) [mg/kg]
Cc1coc(C2=CCCNC2)n1.Cl [Example 2, 3-(4-methyloxazol-2-yl)-1,2,5,6-tetrahydropyridine hydrochloride]	1070	125	1.7	2.6	3	–	–	–	–
ON1CCC=C(c2ncco2)C1 [Example 10, 1-hydroxy-3-(oxazol-2-yl)-1,2,5,6-tetrahydropyridine]	> 100000	300	4.1	4.2	10	–	–	–	–
COC(=O)C1=CCCN(C)C1 [Aerocoline, HBr, reference compound]	–	–	–	–	–	331	194	3	35
C1=C(c2ncco2)CNCC1.Cl [Example 6, 3-(oxazol-2-yl)-1,2,5,6-tetrahydropyridine hydrochloride]	1950	200	3.2	3.2	15	–	–	–	–
Cc1cnc(C2=CCCNC2)o1.Cl [Example 8, 3-(5-methyloxazol-2-yl)-1,2,5,6-tetrahydropyridine hydrochloride]	5890	500	25	24	–	–	–	–	–
